Where only a bound is given, the exact number is not on record here.

Consider 5 compounds from US10189824B2, “Pyrimidine-diamine dual HSP90/TRAP1 inhibitors” (CalAsia Pharmaceuticals, Inc., priority 2014, dated 2019).

One assay has as its system HEI193 cells. As to the kind of experiment: TMRE assay, HEI193 cell mitochondrial integrity. In kind it is cell-based, human. To be noted: observed as early as 2 hours after treatment. As for the experimental part: Mitochondrial integrity was evaluated using Tetramethylrhodamine ethyl ester (TMRE) assay. A TMRE assay kit (Abcam) was used to evaluate Hsp90/TRAP1 inhibitor-induced changes in mitochondrial membrane potential. […] TMRE (200 nM) was then added to wells for 30 min and monitored for changes in fluorescence activity using a fluorescence plate reader (ex544/em 590) after washing the cells. Specific TMRE fluorescence was calculated by comparison to matched wells pretreated with the depolarizing proton ionophore carbonyl cyanide 4-(trifluoromethoxy)phenylhydrazone (FCCP) at 20 uM 10 min prior to addition of TMRE. For mitochondria assays, mitochondria was isolated using a kit from Thermoscientific and loaded with 0.1 mM TMRE. TMRE-loaded mitochondria (2 μg per well) were incubated with test compounds and monitored kinetically at 30° C. for changes in fluorescence using a flurorescence plate reader (ex 544/em 590) (FIGS. 6A, 9A and 12).

The target in a further assay is human Hsp90. As to the kind of experiment: Fluorescence polarization (FP) displacement assay, GA-FITC, Hsp90. In kind it is binding. As to conditions: FP displacement of GA-FITC, 50 nM Hsp90; for IC50: read-out: Biochemical efficacy HSP90 IC50; for Ki: read-out: Biochemical efficacy HSP90 Ki. As for the experimental part:
(§1) Prior to transforming into BL21 (DE3) all the cloned vectors were sequence confirmed. Expressed proteins were purified using NTA resin (Life Technologies) followed by size exclusion chromatography using FPLC. The molecular mass of the purified proteins was confirmed by MALDI-TOF and assessed for purity by SDS-PAGE.
(§2) The assay conditions were 20 mM HEPES, pH-7.5, 50 mM KCl, 5 mM MgCl2, 20 mM sodium molybdate, 2 mM DTT, 0.01% NP40, 100 ug/ml BSA, 50 nM Hsp90 or 200 nM TRAP1, 1% DMSO, and 8 nM (for Hsp90) or 20 nM (for TRAP1) GA-FITC in the presence of increasing concentrations of test compound.

The target of a further assay is T1, TRAP1 (Homo sapiens, UniProt Q12931).
T1 construct: Recombinant full-length human Hsp90 and 459 TRAP1 were cloned; 6His (TEV-cleavable) (N); made in house; host or cells: E. coli BL21 (DE3)
T1 sequence (Q12931 60-704): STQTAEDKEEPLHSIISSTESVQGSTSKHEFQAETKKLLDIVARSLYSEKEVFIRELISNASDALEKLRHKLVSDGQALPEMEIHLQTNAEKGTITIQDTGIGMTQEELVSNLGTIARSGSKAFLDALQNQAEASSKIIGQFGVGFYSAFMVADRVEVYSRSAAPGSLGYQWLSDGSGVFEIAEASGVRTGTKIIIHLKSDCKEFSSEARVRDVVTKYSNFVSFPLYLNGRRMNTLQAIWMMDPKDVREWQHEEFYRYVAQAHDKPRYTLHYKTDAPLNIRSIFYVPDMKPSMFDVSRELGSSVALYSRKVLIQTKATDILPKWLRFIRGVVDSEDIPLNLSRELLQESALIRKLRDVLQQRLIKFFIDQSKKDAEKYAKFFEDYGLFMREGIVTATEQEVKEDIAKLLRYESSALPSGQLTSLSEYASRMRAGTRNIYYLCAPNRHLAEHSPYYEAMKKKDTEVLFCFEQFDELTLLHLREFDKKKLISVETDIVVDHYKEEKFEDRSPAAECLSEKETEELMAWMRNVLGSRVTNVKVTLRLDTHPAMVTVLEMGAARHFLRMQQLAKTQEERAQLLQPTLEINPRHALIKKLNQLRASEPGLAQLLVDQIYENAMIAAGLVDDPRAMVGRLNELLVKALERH
Nature of the assay: Fluorescence polarization (FP) displacement assay, GA-FITC, TRAP1. In kind it is binding. As to conditions: FP displacement of GA-FITC, 200 nM TRAP1; for Ki: NA: Not active, read-out: Biochemical efficacy TRAP1 Ki; for IC50: read-out: Biochemical efficacy TRAP1 IC50. As for the experimental part: as §1, §2

The subject of assay [1] is Mayo Clinic patient derived GBM tumor cells. As to the kind of experiment: Mayo Clinic patient derived GBM tumor cell proliferation. To be noted: 132 hours. In kind it is cell-based. As for the experimental part: (§3) Short-term explant cultures from PDX models were seeded into 96-well Perfecta3D hanging drop plates to form a single spheroid in each well after 2 days. The spheroids were transferred to a round bottom 96 well plate by centrifugation and then incubated with graded concentrations of test compound (8 spheroids per compound concentration). Spheroid volumes were monitored every 6 hours over the course of 5 days using the IncuCyte system (Essen BioScience, MI, US) to provide a growth curve akin to a tumor regrowth assay.

In assay [2] the test system is Hsp90 client proteins (Akt1, ERK1) in MDA-MB-231 cell line. Nature of the assay: Cellular biomarker assays (Akt1, ERK1 ELISA) in MDA-MB-231. Format: cell-based. As to conditions: 48 hours. As for the experimental part:
(§4) Cellular biomarker assays: Cells were cultured in culture medium (RPMI-glutamax, 10% FCS, 100 units/ml penicillin, and 100 μg/ml streptomycin). Cells were passaged after lifting using 0.25% trypsin/EDTA, and 3×10^5 cells were seeded in each well of six well plates (total volume 2.5 mL/well). After the cells were cultured for 24 hours, increasing concentrations of Hsp90 inhibitor were added to wells in triplicate from DMSO-containing stock solutions and mixed by gently by stirring. Final DMSO concentration in all wells was 0.25%. The treated cells were then cultured for 48 hours prior to lysate preparation. The culture media was removed from wells, and the wells were washed twice with DPBS containing 1 mM CaCl2 and 0.5 mM MgCl2. […] The protein concentration in the cell lysates was determined using the BCA protein assay kit used according to the manufacturer's recommendations. […] Protein concentrations were determined using a micro-titer plate reader (Model # Synergy HT; BioTek Inc., Winooski, Vt.).
(§5) Akt1 and ERK1 levels in the cell lysates were measured using kits from R&D Systems used according to the manufacturer's recommendations. […] Akt1 and ERK1 levels were determined using a micro-titer plate reader (Model # Synergy HT; BioTek Inc., Winooski, Vt.) (FIGS. 5 and 8).

In a further assay the test system is GBM10. Nature of the assay: Cellular efficacy in Mayo Clinic GBM PDX cell line GBM10. In kind it is cell-based. As for the experimental part:
as §3

The subject of a further assay is GBM39. Nature of the assay: Cellular efficacy in Mayo Clinic GBM PDX cell line GBM39. Format: cell-based. As for the experimental part:
as §3

In the next assay the test system is GBM43. Nature of the assay: Cellular efficacy in Mayo Clinic GBM PDX cell line GBM43. Format: cell-based. As to the method: as §3
For assay [3], the system named is Hsp90 client proteins (EGFR and Akt1) in Mayo Clinic GBM PDX cell lines. As to the kind of experiment: Cellular biomarker assays (EGFR, Akt1 ELISA) in Mayo Clinic GBM PDX cell lines. In kind it is cell-based. As to conditions: 48 hours; three cell lines.
Assay [4] relates to Hsp90 client proteins (Akt1, ERK1) in HEI193. As to the kind of experiment: Cellular biomarker assays (Akt1, ERK1 ELISA) in HEI193. In kind it is cell-based, human. To be noted: 48 hour treatment. As to the method: as §4, §5

As to `CC(C)c1cc(-c2n[nH]c(=O)n2-c2ccc3c(ccn3C)c2)c(O)cc1O` [Ganetespib, reference compound], the “Effect on TMRE fluorescence in HEI193 cells” value in the assay with HEI193 cells is listed as “significantly weaker response”.

As for `COc1c(C)cnc(CN(CC2(c3cccc(C)n3)CCOCC2)c2cc(Cl)nc(N)n2)c1C` [Compound D, 6-chloro-4-N-[(4-methoxy-3,5-dimethylpyridin-2-yl)methyl]-4-N-{[4-(6-methylpyridin-2-yl)oxan-4-yl]methyl}pyrimidine-2,4-diamine], at human Hsp90, the IC50 worked out at 54 nM and the Ki is 14 nM. Also, at TRAP1, the Ki was found to be 68 nM and the IC50 was 543 nM.

Consider `COc1ccnc(CN(CC2(c3ccc(F)cc3)CCOCC2)c2cc(Cl)nc(N)n2)c1C` [Compound C, 6-chloro-4-N-{[4-(4-fluorophenyl)oxan-4-yl]methyl}-4-N-[(4-methoxy-3-methylpyridin-2-yl)methyl]pyrimidine-2,4-diamine], for which, at human Hsp90, the IC50 is 87 nM and the Ki is 22 nM. Besides, at TRAP1, the IC50 is above 4000 nM.

For `COc1c(C)cnc(CN(CC2(c3ccccn3)CCOCC2)c2cc(Cl)nc(N)n2)c1C` [Compound E, 6-chloro-4-N-[(4-methoxy-3,5-dimethylpyridin-2-yl)methyl]-4-N-{[4-(pyridin-2-yl)oxan-4-yl]methyl}pyrimidine-2,4-diamine], on human Hsp90, the IC50 is 96 nM and the Ki was 24 nM. At TRAP1, the Ki stood at 138 nM and the IC50 was 1100 nM.

For the compound `Cc1cnc(CN(CC2(c3ccc(F)cc3)CCOCC2)c2cc(Cl)nc(N)n2)c(C)c1Cl` [Compound B, 6-chloro-4-N-[(4-chloro-3,5-dimethylpyridin-2-yl)methyl]-4-N-{[4-(4-fluorophenyl)oxan-4-yl]methyl}pyrimidine-2,4-diamine], the “Effect on patient derived GBM tumor cell proliferation” value in assay [1] is listed as “inhibit”. In addition, the “Effect on Akt1 and ERK1 levels, MDA-MB-231” value in assay [2] is “suppression of Hsp90 client proteins”. Also, the IC50 on human Hsp90 is 33 nM; on TRAP1, 85 nM. The values for the Ki on human Hsp90 and on TRAP1 were 8 nM and 11 nM, respectively. The EC50 stood at 1200 nM in the assay with GBM10, 620 nM in the assay with GBM39 and 870 nM with GBM43. For the same compound, the “Effect on EGFR and Akt1 levels, GBM PDX cell lines” value in [3] is listed as “suppression of Hsp90 client proteins”. For the same compound, the “Effect on Akt1 and ERK1 levels, HEI193” value in assay [4] is “reduction of Hsp90 client proteins”.
